Test results as given in ChEMBL document CHEMBL1201862, “PubChem BioAssay data set” (2004).
The source made the active and inactive calls.

Legend:
[1] = tested on: H9c2; assay: cells; type: functional, cell-based; settings: Rattus norvegicus, H9c2, Myocardium;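 further: confirmatory concentration-response retest of ultra-high-throughput screening hits for modulation of myocardial damage; cell death induced by hydrogen peroxide oxidative stress; compound pretreatment for 60 min then peroxide exposure for 2 h; potency is for protecting the cells against peroxide damage rather than for killing them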
[2] = target: Cytochrome P450 2C19 (Homo sapiens, UniProt P33261); assay: Cytochrome panel assay with activity outcomes. Panel member name: p450-cyp2c19 Compounds with AC50 equal or less than 10 uM are considered active; type: functional; settings: read-out: AC50
[3] = target: Cytochrome P450 2C9 (Homo sapiens, UniProt P11712)
[4] = target: Cytochrome P450 2D6 (Homo sapiens, UniProt P10635);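 further: CYP2D6 member of a cytochrome P450 panel assay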
[5] = target: Nonstructural protein 1 (Influenza A virus, UniProt Q194T2); type: functional, Influenza A virus (A/California/07/2009(H1N1))
[6] = target: T1, Corticotropin-releasing factor receptor 2/Corticotropin-releasing factor-binding protein (Homo sapiens, UniProt P24387+Q13324); assay: activators of CRF receptor 2 with binding protein – uHTS hits, confirmation (AID 602473); type: functional; settings: read-out: EC50_Mean
T1 sequence (Q13324 whole entry): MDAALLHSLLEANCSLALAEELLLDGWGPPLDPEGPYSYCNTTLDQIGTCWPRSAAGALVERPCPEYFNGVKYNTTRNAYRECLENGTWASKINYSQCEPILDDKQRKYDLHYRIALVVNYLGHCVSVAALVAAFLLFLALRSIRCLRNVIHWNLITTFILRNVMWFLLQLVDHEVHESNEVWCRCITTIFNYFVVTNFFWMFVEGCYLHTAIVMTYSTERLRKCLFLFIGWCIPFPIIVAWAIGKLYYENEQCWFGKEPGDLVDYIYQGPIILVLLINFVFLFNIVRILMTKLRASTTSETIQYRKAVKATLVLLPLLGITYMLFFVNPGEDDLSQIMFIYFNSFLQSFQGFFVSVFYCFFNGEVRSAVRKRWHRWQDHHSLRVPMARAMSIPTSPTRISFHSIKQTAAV
T1 sequence (P24387 whole entry): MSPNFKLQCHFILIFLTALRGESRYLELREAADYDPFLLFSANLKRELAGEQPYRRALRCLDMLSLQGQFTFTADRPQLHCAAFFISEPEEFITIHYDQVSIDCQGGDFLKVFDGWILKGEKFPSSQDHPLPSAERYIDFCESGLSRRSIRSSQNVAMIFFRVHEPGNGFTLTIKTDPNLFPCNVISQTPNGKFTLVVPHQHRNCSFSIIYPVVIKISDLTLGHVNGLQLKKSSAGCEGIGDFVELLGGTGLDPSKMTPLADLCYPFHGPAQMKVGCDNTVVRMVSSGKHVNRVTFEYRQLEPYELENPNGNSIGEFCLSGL

[7] = target: Genome polyprotein (dengue virus type 2, UniProt P29990); assay: flavivirus cap methylation enzyme inhibition – biochemical, confirmation dose response, primary screen (AID 588689); type: functional
[8] = target: T2, Calpain-2 catalytic subunit (Sus scrofa, UniProt P43367); assay: m-calpain protease blockers, concentration series – biochemical, fluorogenic peptide substrate, dose response (AID 1420); type: functional
T2 sequence (P43367 whole entry): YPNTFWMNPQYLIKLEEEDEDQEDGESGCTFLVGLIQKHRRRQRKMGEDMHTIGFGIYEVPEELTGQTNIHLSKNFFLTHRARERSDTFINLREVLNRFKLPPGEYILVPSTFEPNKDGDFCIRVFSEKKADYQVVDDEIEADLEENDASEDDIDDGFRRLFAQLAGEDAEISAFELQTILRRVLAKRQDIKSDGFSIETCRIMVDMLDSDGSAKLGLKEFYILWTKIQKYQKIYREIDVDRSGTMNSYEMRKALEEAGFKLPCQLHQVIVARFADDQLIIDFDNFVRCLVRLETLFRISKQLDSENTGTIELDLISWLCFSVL

[9] = target: T3, RNA-binding protein pos-1 (Caenorhabditis elegans, UniProt G5EF15); assay: disruptors of C. elegans POS-1 RNA interaction – biochemical, fluorescence polarization, dose response (AID 1964);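 further: purified POS-1 fused to maltose binding protein made in E. coli; potency of compounds blocking POS-1 binding to fluorescent RNA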
T3 sequence (G5EF15 whole entry): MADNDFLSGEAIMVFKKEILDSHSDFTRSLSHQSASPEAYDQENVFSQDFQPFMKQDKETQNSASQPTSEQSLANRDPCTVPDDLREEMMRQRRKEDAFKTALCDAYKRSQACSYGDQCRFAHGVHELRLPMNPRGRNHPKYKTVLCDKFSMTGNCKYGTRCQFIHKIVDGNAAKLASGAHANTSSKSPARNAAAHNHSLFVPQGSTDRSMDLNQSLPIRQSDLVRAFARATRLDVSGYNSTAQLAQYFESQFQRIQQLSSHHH

[10] = luciferase reporter signal suppression in cells – H4 neuroglioma cells, luminescence, dose response (AID 1990); type: functional, cell-based
[11] = Luminescence Cell-Based Dose Response HTS to Identify Inhibitors of 5'UTR Stem-Loop Driven Prion Protein mRNA Translation in H4 Neuroglioblastoma Cells. [Related pubchem assays: 1827 (Project Summary), 1813 (Primary HTS)]; type: functional
[12] = alpha-synuclein stem-loop luciferase translation blockers – H4 neuroglioma cells, luminescence, confirmation (AID 1988); type: functional, cell-based
[13] = target: T4, Zinc finger protein mex-5 (Caenorhabditis elegans, UniProt Q9XUB2); assay: potency of MEX-5 RNA-binding blockers – biochemical, C. elegans, fluorescence polarization, dose response (AID 1960)
T4 sequence (Q9XUB2 whole entry): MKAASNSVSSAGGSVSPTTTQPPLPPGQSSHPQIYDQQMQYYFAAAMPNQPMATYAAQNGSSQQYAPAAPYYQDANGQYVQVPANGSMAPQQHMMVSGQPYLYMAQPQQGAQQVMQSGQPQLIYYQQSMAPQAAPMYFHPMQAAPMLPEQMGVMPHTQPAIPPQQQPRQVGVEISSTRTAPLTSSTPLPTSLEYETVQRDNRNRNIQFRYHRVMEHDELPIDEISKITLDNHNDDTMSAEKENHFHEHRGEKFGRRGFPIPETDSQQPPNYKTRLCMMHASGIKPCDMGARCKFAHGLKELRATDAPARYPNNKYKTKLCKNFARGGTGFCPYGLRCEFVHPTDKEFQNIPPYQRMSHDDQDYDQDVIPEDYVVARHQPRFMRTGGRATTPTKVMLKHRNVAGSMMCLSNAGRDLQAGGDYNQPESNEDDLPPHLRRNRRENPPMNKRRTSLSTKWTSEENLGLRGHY

[14] = tested on: Vero; assay: cells; type: functional; settings: Chlorocebus sabaeus
[15] = microbe, parasite or virus in culture; type: functional; settings: Mycobacterium tuberculosis
[16] = non-specific 3'UTR reporter inhibition in Clone20-Shn3RL – cell-based, Renilla luciferase, cherry-picked, counter-screen for Shn3 inhibitor project, dose response (AID 624133); type: functional
[17] = reduction of Shn3 3'UTR-driven luciferase in osteoblasts – cell-based, Clone20 osteoblasts, firefly luciferase, cherry-picked, dose response (AID 624132); type: functional;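 further: firefly luciferase luminescence from reporter carrying the Shn3 3'UTR in osteoblasts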
[18] = target: T5, Cytochrome P450 1A2 (Homo sapiens, UniProt P05177);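 further: PubChem cytochrome P450 panel assay, CYP1A2 panel member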
T5 sequence (P05177 whole entry): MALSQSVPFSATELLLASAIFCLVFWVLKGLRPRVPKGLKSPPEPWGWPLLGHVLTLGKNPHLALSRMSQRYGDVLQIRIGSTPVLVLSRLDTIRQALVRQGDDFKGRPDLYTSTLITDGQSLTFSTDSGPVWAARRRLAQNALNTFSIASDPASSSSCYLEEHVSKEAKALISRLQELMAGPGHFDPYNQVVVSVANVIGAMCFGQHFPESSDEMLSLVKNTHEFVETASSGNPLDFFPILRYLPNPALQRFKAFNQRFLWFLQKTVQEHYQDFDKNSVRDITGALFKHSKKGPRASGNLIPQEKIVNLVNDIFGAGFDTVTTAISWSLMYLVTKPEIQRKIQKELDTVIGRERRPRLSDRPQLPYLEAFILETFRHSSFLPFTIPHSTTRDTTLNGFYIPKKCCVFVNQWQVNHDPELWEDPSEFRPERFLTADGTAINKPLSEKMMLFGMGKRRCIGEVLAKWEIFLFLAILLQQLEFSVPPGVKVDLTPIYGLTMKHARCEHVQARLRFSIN

[19] = P. falciparum Dd2 growth inhibitors, dose response, SYBR Green, cherry-picked samples (AID 1159567); type: functional, cell-based

Chain of Genome polyprotein (P29990 2492-3391 limits assumed): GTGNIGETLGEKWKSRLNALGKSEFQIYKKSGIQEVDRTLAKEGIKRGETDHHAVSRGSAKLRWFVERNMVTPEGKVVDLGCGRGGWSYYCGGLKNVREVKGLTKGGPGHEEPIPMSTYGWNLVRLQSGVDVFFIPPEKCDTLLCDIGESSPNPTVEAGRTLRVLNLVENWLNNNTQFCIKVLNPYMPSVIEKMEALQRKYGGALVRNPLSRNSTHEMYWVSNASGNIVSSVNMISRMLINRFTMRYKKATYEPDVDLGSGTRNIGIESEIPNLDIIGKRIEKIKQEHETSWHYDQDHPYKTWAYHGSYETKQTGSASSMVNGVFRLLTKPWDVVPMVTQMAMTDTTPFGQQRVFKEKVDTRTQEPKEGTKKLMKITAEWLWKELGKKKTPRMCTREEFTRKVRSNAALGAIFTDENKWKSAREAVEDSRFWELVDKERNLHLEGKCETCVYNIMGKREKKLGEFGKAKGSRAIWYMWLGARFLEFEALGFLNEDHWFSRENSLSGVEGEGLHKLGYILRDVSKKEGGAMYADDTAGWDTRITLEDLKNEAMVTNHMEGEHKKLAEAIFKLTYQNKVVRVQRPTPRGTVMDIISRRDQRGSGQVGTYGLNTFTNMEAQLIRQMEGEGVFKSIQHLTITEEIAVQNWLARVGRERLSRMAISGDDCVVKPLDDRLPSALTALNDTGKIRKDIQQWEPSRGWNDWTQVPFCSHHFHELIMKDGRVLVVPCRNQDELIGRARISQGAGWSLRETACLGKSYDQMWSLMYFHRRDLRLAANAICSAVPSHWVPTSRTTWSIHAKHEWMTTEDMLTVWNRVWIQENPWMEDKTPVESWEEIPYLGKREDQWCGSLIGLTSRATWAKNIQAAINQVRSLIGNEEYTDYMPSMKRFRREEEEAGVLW
Chain of Cytochrome P450 2C19 (P33261 whole entry): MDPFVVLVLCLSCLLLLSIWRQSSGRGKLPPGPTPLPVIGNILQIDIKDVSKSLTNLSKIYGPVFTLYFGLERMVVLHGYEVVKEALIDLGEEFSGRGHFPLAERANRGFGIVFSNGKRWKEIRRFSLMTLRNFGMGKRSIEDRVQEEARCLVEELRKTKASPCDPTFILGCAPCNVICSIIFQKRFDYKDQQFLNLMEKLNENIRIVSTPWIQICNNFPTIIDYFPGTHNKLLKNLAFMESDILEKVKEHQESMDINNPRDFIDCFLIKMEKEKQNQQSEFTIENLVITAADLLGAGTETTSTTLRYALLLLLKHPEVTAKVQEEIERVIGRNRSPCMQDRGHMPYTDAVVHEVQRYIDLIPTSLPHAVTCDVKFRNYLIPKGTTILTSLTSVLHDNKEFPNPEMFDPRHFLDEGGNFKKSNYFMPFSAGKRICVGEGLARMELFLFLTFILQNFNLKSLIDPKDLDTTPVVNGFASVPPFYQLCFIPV
Chain of Cytochrome P450 2C9 (P11712 whole entry): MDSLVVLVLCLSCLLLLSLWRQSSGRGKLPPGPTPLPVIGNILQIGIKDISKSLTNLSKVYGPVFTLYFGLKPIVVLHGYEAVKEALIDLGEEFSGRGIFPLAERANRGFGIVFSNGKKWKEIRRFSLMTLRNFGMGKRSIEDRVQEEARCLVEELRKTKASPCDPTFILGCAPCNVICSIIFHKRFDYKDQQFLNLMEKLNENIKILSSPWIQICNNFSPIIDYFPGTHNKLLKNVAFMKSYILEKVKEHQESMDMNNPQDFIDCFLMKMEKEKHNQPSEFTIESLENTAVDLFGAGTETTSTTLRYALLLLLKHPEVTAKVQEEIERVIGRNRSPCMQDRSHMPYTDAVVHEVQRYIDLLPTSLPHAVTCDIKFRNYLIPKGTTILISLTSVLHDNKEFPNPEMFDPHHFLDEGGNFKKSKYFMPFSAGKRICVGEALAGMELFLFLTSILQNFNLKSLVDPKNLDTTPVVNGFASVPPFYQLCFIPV
Chain of Nonstructural protein 1 (Q194T2 whole entry): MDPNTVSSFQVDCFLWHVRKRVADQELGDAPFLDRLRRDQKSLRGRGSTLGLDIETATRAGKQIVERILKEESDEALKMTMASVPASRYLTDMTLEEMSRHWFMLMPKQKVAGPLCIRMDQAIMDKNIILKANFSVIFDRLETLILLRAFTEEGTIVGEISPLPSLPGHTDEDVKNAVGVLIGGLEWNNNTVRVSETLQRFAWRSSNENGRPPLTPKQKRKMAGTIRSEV
Chain of Cytochrome P450 2D6 (P10635 whole entry): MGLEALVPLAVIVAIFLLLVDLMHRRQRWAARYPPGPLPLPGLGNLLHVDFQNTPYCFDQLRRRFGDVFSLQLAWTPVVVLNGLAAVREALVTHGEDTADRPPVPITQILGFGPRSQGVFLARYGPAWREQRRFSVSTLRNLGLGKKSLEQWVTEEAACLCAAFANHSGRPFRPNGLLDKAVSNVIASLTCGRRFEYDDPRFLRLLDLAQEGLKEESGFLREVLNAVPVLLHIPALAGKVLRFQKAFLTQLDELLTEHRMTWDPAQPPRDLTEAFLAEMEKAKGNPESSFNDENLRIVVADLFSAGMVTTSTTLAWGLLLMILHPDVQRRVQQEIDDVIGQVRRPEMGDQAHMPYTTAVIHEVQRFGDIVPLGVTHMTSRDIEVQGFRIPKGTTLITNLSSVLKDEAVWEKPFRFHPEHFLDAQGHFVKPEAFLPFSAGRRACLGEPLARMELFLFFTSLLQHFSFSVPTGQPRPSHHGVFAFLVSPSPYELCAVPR

Compound: O=C1c2ccccc2NC(c2ccc([N+](=O)[O-])cc2)N1O (centres undefined)
- IC50 [1]: 10.4 µM (active)

Compound: CCOC(=O)CNC(=O)CSc1nc2cc(Br)c(C)nc2[nH]1
- IC50 [1]: 24 µM (active)

Compound: COc1ccc(Oc2ncc3nc(C)c(=O)n(-c4ccccc4)c3n2)cc1
- AC50 [2]: 39.8 µM (inconclusive)
- AC50 [3]: 10 µM (inconclusive)
- AC50 [4]: 39.8 µM (inconclusive)

Compound: CCn1c(SCC(=O)Nc2ccccc2N2CCCCC2)nc2c1c(=O)n(C)c(=O)n2C
- IC50 [1]: > 79 µM (inactive)

Compound: COc1ccc(-c2nn3c(-c4ccccc4)nnc3s2)cc1OC
- IC50 [1]: > 79 µM (inactive)

Compound: CCCCNc1c([N+](=O)[O-])cc(C)cc1[N+](=O)[O-]
- IC50 [5]: 27.1 µM (active)

Compound: CCCS(=O)(=O)c1nc(S(=O)(=O)c2ccc(C)cc2)c(N2CCCC2)s1
- EC50 [6]: > 53 µM (inactive)

Compound: C=CCN1C(=O)/C(=C/c2cccs2)C(=O)NC1=S
- IC50 [7]: 43.8 µM (active)

Compound: O=C(Nc1ccc2ccccc2c1)C(=O)C1C(=O)Nc2ccccc21 (centres undefined)
- IC50 [8]: < 0.4 µM (not active)

Compound: CC(C)(C)OC(=O)N1CC=C2C(C#N)=C(N)C(C#N)(C#N)[C@H](c3cccnc3)[C@H]2C1
- EC50 [9]: 61.7 µM (active)
- EC50 [10]: > 120 µM (not active)
- EC50 [11]: > 120 µM (not active)
- IC50 [7]: > 100 µM (active)
- EC50 [12]: 60.3 µM (active)
- EC50 [13]: 54 µM (active)

Compound: Cc1nn2c(NCCCN(C)C)c3c(nc2c1-c1ccccc1)CCCC3
- CC50 [14]: > 25 µM (active)

Compound: CN(C)c1ccc(N=Nc2ccccc2C(=O)OCC(=O)N(C)c2ccccc2)cc1
- IC50 [5]: 21.2 µM (active)

Compound: CNc1nc(NN)nc(Nc2ccccc2)n1
- IC50 [5]: 15 µM (active)

Compound: COc1ccc(S(=O)(=O)N2CCOCC2)cc1N=Nc1sc(N)nc1-c1ccccc1
- EC50 [10]: 14.7 µM (active)
- IC50 [5]: > 100 µM (active)
- EC50 [11]: > 120 µM (not active)
- EC50 [12]: 46.6 µM (active)

Compound: c1ccc2c(C3=NN=C(NC4CCCCC4)SC3)c[nH]c2c1
- IC50 [8]: 6.76 µM (not active)
- CC50 [15]: > 40 µM (active)

Compound: CCCCNC(=S)NC(=O)c1ccc(Cl)cc1Cl
- IC50 [8]: 4.25 µM (not active)

Compound: COc1cc2c(cc1OC)CN(CC(=O)Nc1ccccc1C#N)CC2
- IC50 [1]: 34.2 µM (inactive)

Compound: CC1CN(C(=O)CCc2cc(C(C)(C)C)c(O)c(C(C)(C)C)c2)CC(C)O1 (centres undefined)
- AC50 [16]: 3.99 µM (active)
- AC50 [17]: 2.56 µM (active)

Compound: CC(=O)Nc1ccc(NC(=O)Cc2ccc(S(=O)(=O)N3CCCCC3)s2)cc1
- IC50 [8]: 2.64 µM (not active)

Compound: CCOC(=O)N1CCN(C(=O)CSc2nc3ccccc3c(=O)n2-c2ccccc2)CC1
- IC50 [1]: 19.5 µM (active)

Compound: CCOC(=O)c1c(NC(=O)C(C)Sc2cccc[n+]2[O-])sc2c1CCN(Cc1ccccc1)C2 (centres undefined)
- EC50 [6]: 4.81 µM (active)

Compound: COc1ccc(C2=CC(c3ccc(C)cc3)n3nnnc3N2)cc1 (centres undefined)
- EC50 [6]: > 53 µM (inactive)

Compound: Cc1ccc(S(=O)(=O)N2CCC(C(=O)NCc3cccnc3)CC2)cc1
- AC50 [2]: 17.8 µM (inconclusive)
- AC50 [3]: 6.31 µM (inconclusive)
- AC50 [4]: 12.6 µM (inconclusive)

Compound: CCC(C(=O)OCC(=O)Nc1ccc(Cl)c(S(=O)(=O)N(C)C)c1)c1ccccc1 (centres undefined)
- IC50 [8]: 13.3 µM (not active)

Compound: CCc1ccc([C@@H]2CC=C(C(=O)O)[C@H](c3ccc(C)cc3)N2S(=O)(=O)c2ccc(C)cc2)cc1
- IC50 [7]: 41.2 µM (active)

Compound: CCN(CC(=O)Nc1ccc2c(c1)OCCO2)C(=O)c1cccc(S(=O)(=O)N2CCOCC2)c1
- AC50 [18]: 12.6 µM (inconclusive)
- AC50 [2]: 22.4 µM (inconclusive)
- AC50 [3]: 11.2 µM (inconclusive)

Compound: Oc1ccc(Cl)cc1/C=N/c1ccc(Br)cc1
- IC50 [1]: 22.3 µM (active)

Compound: NC(=O)c1ccccc1/N=C/c1ccccn1
- IC50 [1]: 22.4 µM (active)

Compound: Cc1ccc(/C=N/NC(=O)CSc2nc3nc(C)cc(C)n3n2)cc1
- AC50 [18]: 4.47 µM (inconclusive)
- AC50 [3]: 22.4 µM (inconclusive)

Compound: CC(=O)Nc1nc(CCl)cs1
- IC50 [8]: > 50 µM (not active)

Compound: COc1ccc(-c2ccc3c(c2)[C@H]2[C@H](CCN2C(=O)NC2CCCC2)[C@H](CO)N3C)cc1
- AC50 [19]: 5.37 µM (active)

Compound: O=C(Nc1ccccc1F)N1CC(=O)N2[C@H](CO)[C@@H](c3ccc(-c4ccccc4)cc3)[C@H]2C1
- AC50 [19]: 14.5 µM (active)
